# From patent publication US20240099991A1, “HOST DIRECTED DRUG COMBINATIONS FOR TREATMENT OF VIRAL INFECTIONS” (priority 2021, published 2024)
# Read-outs that look alike come from different tables or passages of the source.
# Columns and labels:
# [1] = test system: SARS-CoV-2; experiment: In vivo efficacy against SARS-CoV-2 in Syrian Golden Hamster Model (lung viral load); conditions: oral, once daily for 3 days (1-3 DPI), Atovaquone 200 mg/kg, Cepharantine 8 mg/kg, combination 200 + 8 mg/kg
# Text: In vivo efficacy evaluation of Atovaquone and Cepharanthine alone and in combination against SARS-CoV-2 in Syrian Golden Hamster Model [Study Protocol Reference:) Syrian hamsters as a small animal model for SARS-CoV-2 infection and countermeasure development. Masaki Imai et al., PNAS 2020, 117(28)16587-16595]
# Data Analysis One way ANOVA-Dunnett's multiple comparison test
# [2] = test system: SARS-CoV-2; format: cell-based
# [3] = test system: Vero E6 cells; experiment: Cytotoxicity of test agents in the Vero E6 checkerboard assay; conditions: Experiment 2, highest concentration tested
# [4] = test system: Vero E6 cells
compound,measurement,setting,value
CCC(CC)COC(=O)[C@H](C)N[P@](=O)(OC[C@H]1O[C@@](C#N)(c2ccc3c(N)ncnn23)[C@H](O)[C@@H]1O)Oc1ccccc1 [Remdesivir],"Mean Difference (Log10PFU/lung), Infection Control vs. group",[1],0.97 Log10PFU/lung
"O=C1C(O)=C([C@H]2CC[C@H](c3ccc(Cl)cc3)CC2)C(=O)c2ccccc21 [Atovaquone, atovaquone]","Mean Difference (Log10PFU/lung), Infection Control vs. group",[1],0.74 Log10PFU/lung
same,antiviral efficacy,"[2]; 0.12-0.37, alone",inactive
same,inhibition of virus induced cytopathic effects (CPE),"[2]; Experiment 1, Atovaquone 0.12 micromol alone (Niclosamide 0.00)",2.38%
same,inhibition of virus induced cytopathic effects (CPE),"[2]; Experiment 1, Atovaquone 0.37 micromol alone (Niclosamide 0.00)",9.52%
same,inhibition of virus induced cytopathic effects (CPE),"[2]; Experiment 1, Atovaquone 1.10 micromol alone (Niclosamide 0.00)",16.67%
same,inhibition of virus induced cytopathic effects (CPE),"[2]; Experiment 1, Atovaquone 3.30 micromol alone (Niclosamide 0.00)",50.00%
same,inhibition of virus induced cytopathic effects (CPE),"[2]; Experiment 2, Atovaquone 0.12 micromol alone (Cepharanthine 0.00)",2.38%
same,inhibition of virus induced cytopathic effects (CPE),"[2]; Experiment 2, Atovaquone 0.37 micromol alone (Cepharanthine 0.00)",9.52%
same,inhibition of virus induced cytopathic effects (CPE),"[2]; Experiment 2, Atovaquone 1.10 micromol alone (Cepharanthine 0.00)",16.67%
same,inhibition of virus induced cytopathic effects (CPE),"[2]; Experiment 2, Atovaquone 3.30 micromol alone (Cepharanthine 0.00)",50.00%
same,inhibits virus induced cytopathic effects (CPE),[2]; concentration of 3.3 micro mol,50%
"COc1ccc2cc1Oc1ccc(cc1)C[C@H]1c3c(cc4c(c3Oc3cc5c(cc3OC)CCN(C)[C@@H]5C2)OCO4)CCN1C [Cepharanthine, cepharantine]","Mean Difference (Log10PFU/lung), Infection Control vs. group",[1],0.42 Log10PFU/lung
same,cytotoxicity,[3],neither cepharantine nor atovaquone are cytotoxic
same,antiviral efficacy,"[2]; 0.04-0.12 micromole, alone",inactive
same,inhibition of virus induced cytopathic effects (CPE),[2]; Cepharanthine 0.04 micromol alone (Atovaquone 0.00),7.14%
same,inhibition of virus induced cytopathic effects (CPE),[2]; Cepharanthine 0.12 micromol alone (Atovaquone 0.00),9.52%
same,inhibition of virus induced cytopathic effects (CPE),[2]; Cepharanthine 0.37 micromol alone (Atovaquone 0.00),14.29%
same,inhibition of virus induced cytopathic effects (CPE),[2]; Cepharanthine 1.10 micromol alone (Atovaquone 0.00),38.10%
"O=C(Nc1ccc([N+](=O)[O-])cc1Cl)c1cc(Cl)ccc1O [Niclosamide, niclosamide]",cytotoxicity,[4],non cytotoxic
same,antiviral efficacy,"[2]; 0.12 to 0.37 micromolar, without the addition of atovaquone",inactive
same,inhibition of virus induced cytopathic effects (CPE),[2]; Niclosamide 0.12 micromol alone (Atovaquone 0.00),11.90%
same,inhibition of virus induced cytopathic effects (CPE),[2]; Niclosamide 0.37 micromol alone (Atovaquone 0.00),9.52%
same,inhibition of virus induced cytopathic effects (CPE),[2]; Niclosamide 1.10 micromol alone (Atovaquone 0.00),16.67%
same,antiviral efficacy,"[2]; concentrations ranging from 0.12 to 1,1 micro mol",non-efficacious
